The source of these data is the supplement of paper PMC4862054.

The test system of experiment [1] is MDA-MB-468. Conditions: 72 h. The protocol: (§1)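 Drug sensitivity and resistance testing (DSRT) of breast cancer cell lines in 384-well plates, 5 concentrations in 10-fold dilutions over a compound-specific 10,000-fold range. After 72 h, cytotoxicity was read by CellTox Green fluorescence and viability by CellTiter-Glo luminescence (multiplexed), normalised to DMSO and benzethonium chloride controls. EC50 is the inflection point of the fitted dose-response curve (bottom asymptote free, so it can be relative for partial curves) and is censored at the highest tested concentration. Rows with DSS 0 (no meaningful response) were excluded.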

In experiment [2] the test system is MDA-MB-231. Conditions: 72 h. The protocol:
as §1

Experiment [3] deals with MCF-10A. The settings on record: 72 h. The protocol:
as §1

In experiment [4] the test system is MDA-MB-231. The settings on record: 72 h. In outline: (§2)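 Seeding of breast cancer cell lines (20 µl suspension) was done into 384-well plates pre-loaded with compound at 5 concentrations, 10-fold apart, covering a compound-specific 10,000-fold range. The plates were incubated for 72 h, read for CellTox Green fluorescence (485/520 nm), and then read for CellTiter-Glo luminescence after 10 min at room temperature. Every plate was normalised to 0.1 % DMSO and a positive kill control. Curve fitting gave the EC50, censored at the top concentration.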
The source holds these as a separate data set.

The subject of experiment [5] is MCF-10A. The settings on record: 72 h. In outline: as §2
The source holds these as a separate data set.

Experiment [6] relates to BT-474. The settings on record: 72 h. The gist of the method: as §2
The subject of experiment [7] is BT-549. Conditions: 72 h. In outline: as §2
In experiment [8] the test system is HDQ-P1. The settings on record: 72 h. In outline: as §2
Experiment [9] relates to HCC1143. Put plainly: normalised response (% of control), CellTiter-Glo; higher = more viable cells (100 = DMSO, 0 = benzethonium chloride kill control). Conditions: incubation time: 72 h. In outline:
(§3)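 Breast cancer cell lines in 20 µl suspension were added to 384-well plates containing compound at 5 concentrations, spaced in 10-fold steps across a 10,000-fold range chosen for each compound, and incubated for 72 h. CellTox Green fluorescence was read at 485/520 nm, followed by CellTiter-Glo luminescence after 10 min at room temperature. Signals on each plate were normalised so that 0.1 % DMSO equals 100 and a positive kill control equals 0. Every value in the table is the normalised signal at one concentration of the series.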
(Cellular ATP, detected with luciferase, serves as a proxy for viable cell number.)

The test system of experiment [10] is MDA-MB-468. Described as above. The settings on record: incubation time: 72 h. The gist of the method:
as §3

The subject of experiment [11] is MDA-MB-231. Described as above. Conditions: incubation time: 72 h. The gist of the method: as §3
The test system of experiment [12] is MFM-223. The experiment is described as above. The settings on record: incubation time: 72 h. The gist of the method:
as §3

The test system of experiment [13] is MCF-10A. The experiment is described as above. The settings on record: incubation time: 72 h. The gist of the method:
as §3

Experiment [14] deals with BT-474. The description is as above. The settings on record: incubation time: 72 h. The gist of the method: as §3
In experiment [15] the test system is HCC1599. The description is as above. Conditions: incubation time: 72 h. In outline:
as §3

Experiment [16] relates to BT-549. The experiment is described as above. The settings on record: incubation time: 72 h. In outline: as §3
The subject of experiment [17] is CAL-85-1. The description is as above. The settings on record: incubation time: 72 h. The gist of the method: as §3
Experiment [18] relates to HCC1937. Described as above. Conditions: incubation time: 72 h. The gist of the method: as §3
In experiment [19] the test system is MDA-MB-436. Described as above. Conditions: incubation time: 72 h. In outline:
as §3

Experiment [20] has as its system HDQ-P1. The description is as above. Conditions: incubation time: 72 h. In outline: as §3
Experiment [21] has as its system DU-4475. Described as above. The settings on record: incubation time: 72 h. In outline: as §3
For experiment [22], the system named is CAL-51. Described as above. Conditions: incubation time: 72 h. The gist of the method: as §3
Experiment [23] relates to SK-BR-3. Described as above. Conditions: incubation time: 72 h. In outline: as §3
Experiment [24] deals with CAL-148. Described as above. Conditions: incubation time: 72 h. The gist of the method:
as §3

In experiment [25] the test system is MDA-MB-453. Described as above. Conditions: incubation time: 72 h. In outline: as §3
Experiment [26] deals with Hs578T. Described as above. The settings on record: incubation time: 72 h. The gist of the method: as §3
The test system of experiment [27] is CAL-120. The experiment is described as above. The settings on record: incubation time: 72 h. The gist of the method:
as §3

Experiment [28] has as its system HCC1143. In words: normalised viability (% of control), CellTiter-Blue; higher = more viable cells (100 = DMSO, 0 = benzethonium chloride kill control). The settings on record: incubation time: 72 h. In outline:
(§4)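 Vehicle (100) and a positive kill control (0) anchored the normalisation of each plate, and Z'-factor was used for quality control. Breast cancer cell lines in 20 µl suspension were incubated 72 h over compound in 5 µl medium in 384-well plates, followed by CellTiter-Blue at 560/590 nm. The value is normalised viability at a single listed concentration of the series.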
(In general: The colour change of resazurin is a common sign of viable cells or microbes.)

The subject of experiment [29] is MDA-MB-468. The experiment is described as above. Conditions: incubation time: 72 h. The gist of the method:
as §4

Experiment [30] concerns MDA-MB-231. Described as above. The settings on record: incubation time: 72 h. The gist of the method:
as §4

For experiment [31], the system named is MFM-223. The experiment is described as above. The settings on record: incubation time: 72 h. The gist of the method: as §4
The test system of experiment [32] is BT-474. Described as above. The settings on record: incubation time: 72 h. The gist of the method:
as §4

For experiment [33], the system named is HCC1599. The description is as above. The settings on record: incubation time: 72 h. In outline: as §4
Experiment [34] deals with BT-549. Described as above. The settings on record: incubation time: 72 h. In outline: as §4
Experiment [35] has as its system CAL-85-1. Described as above. The settings on record: incubation time: 72 h. The gist of the method:
as §4

Experiment [36] deals with HCC1937. The experiment is described as above. Conditions: incubation time: 72 h. In outline: as §4
Experiment [37] has as its system MDA-MB-436. The experiment is described as above. Conditions: incubation time: 72 h. The gist of the method: as §4
The subject of experiment [38] is HDQ-P1. The experiment is described as above. The settings on record: incubation time: 72 h. In outline:
as §4

Experiment [39] concerns DU-4475. Described as above. The settings on record: incubation time: 72 h. The gist of the method: as §4
Experiment [40] deals with CAL-51. Described as above. Conditions: incubation time: 72 h. In outline: as §4
Experiment [41] has as its system SK-BR-3. The experiment is described as above. The settings on record: incubation time: 72 h. In outline:
as §4

Experiment [42] has as its system CAL-148. The description is as above. The settings on record: incubation time: 72 h. In outline: as §4
Experiment [43] concerns MDA-MB-453. The description is as above. The settings on record: incubation time: 72 h. In outline: as §4
For experiment [44], the system named is Hs578T. The experiment is described as above. The settings on record: incubation time: 72 h. The gist of the method: as §4
For experiment [45], the system named is CAL-120. The experiment is described as above. The settings on record: incubation time: 72 h. In outline:
as §4

Bounds are passed on as bounds.

`CCC(C)(C)C(=O)O[C@H]1C[C@@H](C)C=C2C=C[C@H](C)[C@H](CC[C@@H]3C[C@@H](O)CC(=O)O3)[C@H]21` [Simvastatin]: the “EC50, CellTox Green” value was found to be 511 nM in the experiment on MDA-MB-468 [1], 1680 nM in the experiment with MDA-MB-231 [2] and 2590 nM with MCF-10A [3]. In addition, the “EC50, CellTiter-Glo” value in the experiment on MDA-MB-231 [4] was 3150 nM; in the experiment with MCF-10A [5], 6390 nM; in the experiment with BT-474 [6] it was 1200 nM; with BT-549 [7] it was over 10000 nM; in the experiment on HDQ-P1 [8] it was 1700 nM.
Take `CN(C)/N=N/c1[nH]cnc1C(N)=O` [Dacarbazine] (1 nM): the normalised response in the experiment with HCC1143 [9] is 104%; with MDA-MB-468 [10] it was 102%; with MDA-MB-231 [11], 105%; in the experiment with MFM-223 [12], 103%; in the experiment with MCF-10A [13], 100%; in the experiment on BT-474 [14], 101%. For the same compound, the normalised response amounted to 96.7% in the experiment on HCC1599 [15]; 101% in the experiment with BT-549 [16]; 96.7% in the experiment on CAL-85-1 [17]; 101% with HCC1937 [18]; 122% with MDA-MB-436 [19]; 96% in the experiment on HDQ-P1 [20]. Besides, the normalised response worked out at 104% with DU-4475 [21]; 99.1% in the experiment on CAL-51 [22]; 99.9% in the experiment with SK-BR-3 [23]; 100% in the experiment on CAL-148 [24]; 116% with MDA-MB-453 [25]; 107% in the experiment on Hs578T [26]. The normalised response in the experiment on CAL-120 [27] worked out at 94.7%. Besides, the normalised viability in the experiment with HCC1143 [28] turned out to be 92.2%; in the experiment on MDA-MB-468 [29] it was 103%; in the experiment on MDA-MB-231 [30] it was 94.8%; in the experiment on MFM-223 [31], 101%; in the experiment on BT-474 [32] it was 99.6%; with HCC1599 [33], 81.7%. Moreover, the normalised viability came to 108% in the experiment with BT-549 [34]; 90.2% in the experiment with CAL-85-1 [35]; 108% in the experiment on HCC1937 [36]; 114% in the experiment on MDA-MB-436 [37]; 105% in the experiment with HDQ-P1 [38]; 104% in the experiment on DU-4475 [39]. Also, the normalised viability came to 87.7% with CAL-51 [40]; 106% in the experiment on SK-BR-3 [41]; 99.7% with CAL-148 [42]; 96.5% in the experiment on MDA-MB-453 [43]; 106% with Hs578T [44]; 89.3% in the experiment on CAL-120 [45].
